Source: patent US10258602B2 (Ocera Therapeutics, Inc., priority 2007, dated 2019)
pIC50, pKi: −log10 of the molar value. Read-outs that look alike come from different tables or passages of the source.

Legend:
[1] = molecular target: T1, CYP2B6 (Homo sapiens, UniProt P20813); assay: Cytochrome P450 inhibition, CYP2B6; assay type: in vitro ADME; conditions: read-out: IC50 2B6
T1 construct: purchased BD Gentest, Becton-Dickinson (Supersomes); host or cells: insect cells
T1 sequence (P20813 1-491): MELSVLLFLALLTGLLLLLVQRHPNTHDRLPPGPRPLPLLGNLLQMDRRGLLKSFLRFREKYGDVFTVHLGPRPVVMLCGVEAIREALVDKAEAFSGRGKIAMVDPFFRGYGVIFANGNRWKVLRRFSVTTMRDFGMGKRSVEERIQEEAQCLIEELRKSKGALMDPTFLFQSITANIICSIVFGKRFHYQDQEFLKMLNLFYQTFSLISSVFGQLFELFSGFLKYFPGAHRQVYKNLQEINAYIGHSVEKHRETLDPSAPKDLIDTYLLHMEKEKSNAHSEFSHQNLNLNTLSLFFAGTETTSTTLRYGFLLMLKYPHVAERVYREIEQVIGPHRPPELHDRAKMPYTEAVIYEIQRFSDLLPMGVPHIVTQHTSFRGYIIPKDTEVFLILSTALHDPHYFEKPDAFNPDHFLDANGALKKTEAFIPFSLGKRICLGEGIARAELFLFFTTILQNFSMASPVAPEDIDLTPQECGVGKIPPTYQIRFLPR
From the text: (§1) K. Assay for Cytochrome P450 Inhibition
(§2) Cytochrome P450 enzymes are implicated in the phase I metabolism of drugs. The majority of drug-drug interactions are metabolism-based and, moreover, these interactions typically involve inhibition of cytochrome P450s. Six CYP450 enzymes (CYP1A2, CYP2C8, CYP2C9, CYP2C19, CYP2D6 and CYP3A4) appear to be commonly responsible for the metabolism of most drugs and the associated drug-drug interactions. Assays to determine the binding of compounds of the invention to the various metabolically important isoforms of cytochrome P450 metabolizing enzymes are commercially available, for example NoAb BioDiscoveries (Mississaugua, ON, Canada) and Absorption Systems (Exton, Pa., USA). As well, a number of appropriate methods have been described or reviewed in the literature. (White, R. E. Ann. Rev. Pharmacol. Toxicol. 2000, 40, 133-157; Li, A. P. Drug. Disc. Today 2001, 6, 357-366; Turpeinen, M.; Korhonen, L. E. Tolonen, A.; et al. Eur. J. Pharm. Sci, 2006, 29, 130-138.)
(§3) The key aspects of the experimental method were as follows: • 1. […] Assays monitored, via fluorescence detection, the formation of a fluorescent metabolite following incubation of the microsomes with a specific CYP substrate. • 3. Compounds of the present invention were tested in duplicate samples at eight test concentrations using 3-fold serial dilutions (concentration range of 0.0457 to 100 μM). • 4. For each CYP-450 enzyme, a specific inhibitor was tested in duplicate at eight concentrations as a positive control. • 5. The concentration of the inhibitor or test compound that inhibited metabolite formation by 50% (IC50) was calculated by non-linear regression analysis of the % inhibition vs. log concentration (M) curve.

[2] = molecular target: T2, CYP2D6 (Homo sapiens, UniProt P10635); assay: Cytochrome P450 inhibition, CYP2D6; assay type: in vitro ADME; conditions: read-out: IC50 2D6
T2 construct: purchased BD Gentest, Becton-Dickinson (Supersomes); host or cells: insect cells
From the text: as §1, §2, §3

[3] = molecular target: T3, CYP2A6 (Homo sapiens, UniProt P11509); assay: Cytochrome P450 inhibition, CYP2A6; assay type: in vitro ADME; conditions: read-out: IC50 2A6
T3 construct: purchased BD Gentest, Becton-Dickinson (Supersomes); host or cells: insect cells
T3 sequence (P11509 1-494): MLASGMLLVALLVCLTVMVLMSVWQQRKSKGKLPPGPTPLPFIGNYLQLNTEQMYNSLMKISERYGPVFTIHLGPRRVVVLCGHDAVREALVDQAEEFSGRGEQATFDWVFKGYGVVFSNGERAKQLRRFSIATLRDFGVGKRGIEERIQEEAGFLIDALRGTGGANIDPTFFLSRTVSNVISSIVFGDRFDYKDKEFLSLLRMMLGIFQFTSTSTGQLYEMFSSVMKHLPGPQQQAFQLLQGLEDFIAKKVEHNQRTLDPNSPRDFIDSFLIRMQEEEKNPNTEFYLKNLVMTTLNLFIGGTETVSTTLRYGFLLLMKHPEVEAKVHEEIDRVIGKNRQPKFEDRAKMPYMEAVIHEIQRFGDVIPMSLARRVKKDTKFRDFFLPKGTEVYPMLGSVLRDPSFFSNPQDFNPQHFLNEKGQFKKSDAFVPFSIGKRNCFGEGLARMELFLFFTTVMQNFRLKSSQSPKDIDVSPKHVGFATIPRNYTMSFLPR
From the text: as §1, §2, §3

[4] = molecular target: T4, CYP3A4 (Homo sapiens, UniProt P08684); assay: Cytochrome P450 inhibition, CYP3A4 (two substrates); assay type: in vitro ADME
T4 construct: purchased BD Gentest, Becton-Dickinson (Supersomes); host or cells: insect cells
From the text: as §1, §2, §3

[5] = molecular target: T5, CYP2C19 (Homo sapiens, UniProt P33261); assay: Cytochrome P450 inhibition, CYP2C19; assay type: in vitro ADME; conditions: read-out: IC50 2C19
T5 construct: purchased BD Gentest, Becton-Dickinson (Supersomes); host or cells: insect cells
From the text: as §1, §2, §3

[6] = molecular target: T6, CYP2C8 (Homo sapiens, UniProt P10632); assay: Cytochrome P450 inhibition, CYP2C8; assay type: in vitro ADME; conditions: read-out: IC50 2C8
T6 construct: purchased BD Gentest, Becton-Dickinson (Supersomes); host or cells: insect cells
T6 sequence (P10632 1-490): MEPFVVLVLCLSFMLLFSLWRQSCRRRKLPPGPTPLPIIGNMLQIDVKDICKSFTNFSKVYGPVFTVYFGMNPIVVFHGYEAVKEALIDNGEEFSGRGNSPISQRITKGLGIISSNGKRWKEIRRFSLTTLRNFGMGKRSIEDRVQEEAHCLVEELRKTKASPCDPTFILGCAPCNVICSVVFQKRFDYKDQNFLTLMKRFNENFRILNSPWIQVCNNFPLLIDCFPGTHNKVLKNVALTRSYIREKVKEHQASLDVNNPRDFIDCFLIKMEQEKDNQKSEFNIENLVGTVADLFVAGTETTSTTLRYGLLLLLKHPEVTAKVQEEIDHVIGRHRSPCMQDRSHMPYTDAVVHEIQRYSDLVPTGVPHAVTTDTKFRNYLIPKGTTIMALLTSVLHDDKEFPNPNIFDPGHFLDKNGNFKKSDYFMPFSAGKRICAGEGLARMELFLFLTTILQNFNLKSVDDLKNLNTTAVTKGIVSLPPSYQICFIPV
From the text: as §1, §2, §3

[7] = molecular target: T7, CYP2C9 (Homo sapiens, UniProt P11712); assay: Cytochrome P450 inhibition, CYP2C9; assay type: in vitro ADME; conditions: read-out: IC50 2C9
T7 construct: purchased BD Gentest, Becton-Dickinson (Supersomes); host or cells: insect cells
From the text: as §1, §2, §3

[8] = molecular target: T8, CYP1A2 (Homo sapiens, UniProt P05177); assay: Cytochrome P450 inhibition, CYP1A2; assay type: in vitro ADME; conditions: read-out: IC50 1A2
T8 construct: purchased BD Gentest, Becton-Dickinson (Supersomes); host or cells: insect cells
T8 sequence (P05177 1-516): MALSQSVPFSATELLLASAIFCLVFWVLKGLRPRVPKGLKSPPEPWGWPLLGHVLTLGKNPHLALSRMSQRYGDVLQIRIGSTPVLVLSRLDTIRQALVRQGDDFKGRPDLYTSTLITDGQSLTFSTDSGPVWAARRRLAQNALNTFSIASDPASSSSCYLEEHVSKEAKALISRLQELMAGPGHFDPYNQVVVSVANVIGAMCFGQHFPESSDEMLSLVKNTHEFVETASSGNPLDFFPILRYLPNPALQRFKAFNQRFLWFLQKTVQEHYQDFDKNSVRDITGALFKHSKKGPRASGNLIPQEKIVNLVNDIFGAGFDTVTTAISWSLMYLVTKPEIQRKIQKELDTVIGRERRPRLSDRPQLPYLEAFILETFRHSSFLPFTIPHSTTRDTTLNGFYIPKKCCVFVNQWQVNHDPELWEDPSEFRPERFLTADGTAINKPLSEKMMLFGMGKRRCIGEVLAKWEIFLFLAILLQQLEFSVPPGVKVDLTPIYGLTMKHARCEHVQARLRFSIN
From the text: as §1, §2, §3

[9] = molecular target: T9, CYP2E1 (Homo sapiens, UniProt P05181); assay: Cytochrome P450 inhibition, CYP2E1; assay type: in vitro ADME; conditions: read-out: IC50 2E1
T9 construct: purchased BD Gentest, Becton-Dickinson (Supersomes); host or cells: insect cells
From the text: as §1, §2, §3

[10] = molecular target: human growth hormone secretagogue receptor (hGHS-R1a) (Homo sapiens, UniProt Q92847); assay: Competitive radioligand binding assay (ghrelin receptor), standard method A; conditions: binding activity at the human ghrelin receptor, standard method A
human growth hormone secretagogue receptor (hGHS-R1a), sequence (Q92847 whole entry): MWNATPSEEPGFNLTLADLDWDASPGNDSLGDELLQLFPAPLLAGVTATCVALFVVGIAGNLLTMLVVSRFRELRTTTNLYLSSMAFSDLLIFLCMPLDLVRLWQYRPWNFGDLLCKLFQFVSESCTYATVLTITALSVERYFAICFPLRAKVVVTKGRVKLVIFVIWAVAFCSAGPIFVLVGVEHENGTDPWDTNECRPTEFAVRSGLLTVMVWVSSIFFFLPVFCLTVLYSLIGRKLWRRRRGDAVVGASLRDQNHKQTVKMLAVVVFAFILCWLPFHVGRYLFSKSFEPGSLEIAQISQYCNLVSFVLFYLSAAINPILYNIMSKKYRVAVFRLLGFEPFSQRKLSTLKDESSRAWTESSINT

T4 sequence (P08684 whole entry): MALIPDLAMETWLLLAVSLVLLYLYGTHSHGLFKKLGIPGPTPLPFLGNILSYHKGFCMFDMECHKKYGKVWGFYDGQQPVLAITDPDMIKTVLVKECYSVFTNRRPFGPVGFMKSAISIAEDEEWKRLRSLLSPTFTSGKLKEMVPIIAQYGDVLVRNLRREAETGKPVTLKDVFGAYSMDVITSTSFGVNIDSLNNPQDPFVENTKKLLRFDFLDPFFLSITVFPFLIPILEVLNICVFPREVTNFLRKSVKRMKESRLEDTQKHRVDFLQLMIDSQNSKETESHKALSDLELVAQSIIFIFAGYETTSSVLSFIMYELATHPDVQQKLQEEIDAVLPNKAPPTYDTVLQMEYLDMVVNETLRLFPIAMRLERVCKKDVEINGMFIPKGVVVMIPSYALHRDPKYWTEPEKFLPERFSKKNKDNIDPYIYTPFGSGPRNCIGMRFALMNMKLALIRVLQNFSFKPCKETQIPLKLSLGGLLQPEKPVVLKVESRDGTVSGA
T9 sequence (P05181 whole entry): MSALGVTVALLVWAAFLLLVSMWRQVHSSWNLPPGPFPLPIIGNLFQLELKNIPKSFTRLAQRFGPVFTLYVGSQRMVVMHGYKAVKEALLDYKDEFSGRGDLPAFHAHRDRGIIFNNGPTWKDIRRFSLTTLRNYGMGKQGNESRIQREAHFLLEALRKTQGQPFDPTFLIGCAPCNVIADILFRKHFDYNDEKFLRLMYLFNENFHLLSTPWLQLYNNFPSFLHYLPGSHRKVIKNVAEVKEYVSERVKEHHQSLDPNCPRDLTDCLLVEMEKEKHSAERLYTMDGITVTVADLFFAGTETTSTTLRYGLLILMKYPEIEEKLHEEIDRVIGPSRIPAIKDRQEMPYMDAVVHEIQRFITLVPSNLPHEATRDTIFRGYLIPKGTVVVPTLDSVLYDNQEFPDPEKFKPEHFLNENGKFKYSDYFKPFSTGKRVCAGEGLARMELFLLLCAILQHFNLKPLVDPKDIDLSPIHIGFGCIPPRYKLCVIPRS
T5 sequence (P33261 whole entry): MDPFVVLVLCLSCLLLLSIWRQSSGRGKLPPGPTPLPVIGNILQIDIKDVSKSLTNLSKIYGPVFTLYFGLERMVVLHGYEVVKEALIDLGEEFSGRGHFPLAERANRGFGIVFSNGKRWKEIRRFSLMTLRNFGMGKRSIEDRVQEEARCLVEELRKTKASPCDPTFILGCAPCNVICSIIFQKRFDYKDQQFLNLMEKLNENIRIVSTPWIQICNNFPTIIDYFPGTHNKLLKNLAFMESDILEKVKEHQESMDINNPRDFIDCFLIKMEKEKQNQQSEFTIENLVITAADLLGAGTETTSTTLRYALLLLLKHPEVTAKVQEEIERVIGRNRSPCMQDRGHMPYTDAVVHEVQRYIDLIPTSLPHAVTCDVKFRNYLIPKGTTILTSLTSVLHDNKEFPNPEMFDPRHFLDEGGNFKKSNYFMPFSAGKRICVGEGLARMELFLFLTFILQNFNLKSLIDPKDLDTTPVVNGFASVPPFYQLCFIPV
T2 sequence (P10635 whole entry): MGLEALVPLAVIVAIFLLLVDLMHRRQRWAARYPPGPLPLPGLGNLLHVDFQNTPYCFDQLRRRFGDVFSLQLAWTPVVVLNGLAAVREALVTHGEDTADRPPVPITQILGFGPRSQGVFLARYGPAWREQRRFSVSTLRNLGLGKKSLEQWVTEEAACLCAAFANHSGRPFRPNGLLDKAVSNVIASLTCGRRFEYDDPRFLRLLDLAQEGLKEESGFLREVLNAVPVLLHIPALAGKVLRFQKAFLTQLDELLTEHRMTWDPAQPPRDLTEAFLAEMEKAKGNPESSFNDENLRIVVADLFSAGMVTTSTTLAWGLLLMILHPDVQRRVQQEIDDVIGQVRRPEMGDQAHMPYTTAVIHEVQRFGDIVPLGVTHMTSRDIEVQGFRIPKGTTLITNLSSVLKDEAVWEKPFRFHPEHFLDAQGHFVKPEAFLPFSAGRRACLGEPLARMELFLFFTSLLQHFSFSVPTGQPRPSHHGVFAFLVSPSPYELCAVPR
T7 sequence (P11712 whole entry): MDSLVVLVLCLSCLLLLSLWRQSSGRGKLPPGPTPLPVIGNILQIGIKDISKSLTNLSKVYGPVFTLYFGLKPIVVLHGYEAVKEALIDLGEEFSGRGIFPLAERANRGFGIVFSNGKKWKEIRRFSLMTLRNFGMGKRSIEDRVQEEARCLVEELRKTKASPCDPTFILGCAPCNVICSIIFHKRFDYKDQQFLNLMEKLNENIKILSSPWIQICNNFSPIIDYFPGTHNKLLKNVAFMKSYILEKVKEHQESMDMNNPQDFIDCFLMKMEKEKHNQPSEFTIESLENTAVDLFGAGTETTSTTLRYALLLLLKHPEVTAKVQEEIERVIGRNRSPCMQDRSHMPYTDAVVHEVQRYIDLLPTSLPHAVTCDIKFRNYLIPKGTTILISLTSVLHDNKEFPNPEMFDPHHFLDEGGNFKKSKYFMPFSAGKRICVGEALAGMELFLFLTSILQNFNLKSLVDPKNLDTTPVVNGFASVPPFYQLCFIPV

Q: Which results are given for `CC(C)C[C@H]1NC(=O)[C@@H](C)N(C)C(=O)[C@H](C2CC2)NCCOc2c(ccc(F)c2F)CCCNC1=O` [Compound 816]?
A: pIC50 [1]: < 4.00; pIC50 [2]: < 4.00; pIC50 [3]: < 4.00; pIC50 ([4]; CYP3A4, substrate BFC, read-out: IC50 3A4 (BFC)): 5.23; pIC50 ([4]; CYP3A4, substrate BQ, read-out: IC50 3A4 (BQ)): 5.87; pIC50 [5]: < 4.00; pIC50 [6]: < 4.00; pIC50 [7]: < 4.00; pIC50 [8]: < 4.00; pIC50 [9]: < 4.00; pKi [10]: ≥ 8.00
